The values below come from PMC8395690, “Entropy–Entropy Compensation between the Protein, Ligand, and Solvent Degrees of Freedom Fine-Tunes Affinity in Ligand Binding to Galectin-3C” (JACS Au, 2021).

This assay addresses T1, galectin-3C (carbohydrate recognition domain of galectin-3) (Homo sapiens, UniProt P17931).
T1 construct: gene LGALS3; carbohydrate recognition domain of galectin-3 (residues 113–250)
Briefly: ITC; X-ray crystal structure; NMR titration. The format is binding. In general terms: Isothermal titration calorimetry measures the heat released or taken up as one component is titrated into another.

Like-named read-outs stand apart in the source and are kept apart here.

T1 sequence (P17931 113-250): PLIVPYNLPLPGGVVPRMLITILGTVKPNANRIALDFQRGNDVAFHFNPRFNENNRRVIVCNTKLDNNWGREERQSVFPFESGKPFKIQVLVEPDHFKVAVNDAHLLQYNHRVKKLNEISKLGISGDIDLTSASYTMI

The term Kd denotes a measure of binding affinity in units of concentration. On to `OC[C@H]1O[C@@H](S[C@@H]2O[C@H](CO)[C@@H](O)[C@H](O)[C@H]2O)[C@H](O)[C@@H](n2cc(-c3cccc(F)c3)nn2)[C@H]1O` [M], for which the Kd (read-out: Kd ITC (10^-6 M) ^a) turned out to be 2 µM.
Molecule `OC[C@H]1O[C@@H](S[C@@H]2O[C@H](CO)[C@@H](O)[C@H](O)[C@H]2O)[C@H](O)[C@@H](n2cc(-c3ccccc3F)nn2)[C@H]1O` [O] gave a Kd of 7.21 µM.
Consider `OC[C@H]1O[C@@H](S[C@@H]2O[C@H](CO)[C@@H](O)[C@H](O)[C@H]2O)[C@H](O)[C@@H](n2cc(-c3ccc(F)cc3)nn2)[C@H]1O` [P], for which, under “read-out: Kd ITC (10^-6 M) ^a”, the Kd was 2.46 µM.
